Reference: ChEMBL document CHEMBL3616475 (Bioorg Med Chem, 2015)
Active and inactive are the calls of the source. The rule behind the calls is not given here.

Experiments:
Rattus norvegicus [1] = test: Inhibition of CPA-induced hypolocomotion in Sprague-Dawley rat at 0.03 to 0.1 mg/kg, ip administered 25 mins prior to CPA addition measured for 20 mins starting from 5 mins post habituation; type: functional, organism-based
Rattus norvegicus [2] = species: Rattus norvegicus; test: Selectivity ratio of Ki for Adenosine A2A receptor in Sprague-Dawley rat striatal membranes to Ki for Adenosine A1 receptor in Sprague-Dawley rat whole brain membranes
Adenosine receptor A2a [3] = biological target: T1, Adenosine receptor A2a (Rattus norvegicus, UniProt P30543); test: Displacement of [3H]-NECA from Adenosine A2A receptor in Sprague-Dawley rat striatal membranes; set-up: species or system Striatum, Membrane
Adenosine receptor A1 [4] = biological target: T2, Adenosine receptor A1 (Rattus norvegicus, UniProt P25099); test: Displacement of [3H]-DPCPX from Adenosine A1 receptor in Sprague-Dawley rat whole brain membranes; set-up: species or system Membrane
T2 sequence (P25099 whole entry): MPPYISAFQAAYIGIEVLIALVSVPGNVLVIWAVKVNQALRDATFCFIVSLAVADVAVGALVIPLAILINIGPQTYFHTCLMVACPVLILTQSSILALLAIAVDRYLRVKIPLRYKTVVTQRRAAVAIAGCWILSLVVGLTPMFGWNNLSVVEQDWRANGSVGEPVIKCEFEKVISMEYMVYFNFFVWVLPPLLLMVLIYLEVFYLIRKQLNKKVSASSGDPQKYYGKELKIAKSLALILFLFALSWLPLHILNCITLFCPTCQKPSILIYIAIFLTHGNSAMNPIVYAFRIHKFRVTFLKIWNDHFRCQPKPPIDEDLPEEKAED

Adenosine receptor A1 [5] = biological target: T2, Adenosine receptor A1
Description: Displacement of [3H]-DPCPX from Adenosine A1 receptor in Sprague-Dawley rat whole brain membranes in absence of GTP

Rattus norvegicus [6] = test: Inhibition of CPA-induced hypolocomotion in Sprague-Dawley rat at 0.06 to […], ip administered 25 mins prior to CPA addition measured for 20 mins starting from 5 mins post habituation
Adenosine receptor A1 [7] = biological target: T2, Adenosine receptor A1; remark: listed apart in the source
Description: Displacement of [3H]-DPCPX from Adenosine A1 receptor in Sprague-Dawley rat whole brain membranes in presence of 0.1 mM GTP

Adenosine receptor A1 [8] = biological target: T2, Adenosine receptor A1; remark: listed apart in the source
Description: Displacement of [3H]-DPCPX from Adenosine A1 receptor in Sprague-Dawley rat brain cortical membranes in presence of 0.1 mM GTP

Adenosine receptor A1 [9] = biological target: T2, Adenosine receptor A1; remark: listed apart in the source
Description: Displacement of [3H]-DPCPX from Adenosine A1 receptor in Sprague-Dawley rat brain cortical membranes in absence of GTP

Adenosine receptor A2a [10] = biological target: T1, Adenosine receptor A2a; test: Binding affinity to Adenosine A2A receptor in rat brain tissue by radioligand displacement assay; type: tissue-based

T1 sequence (P30543 whole entry): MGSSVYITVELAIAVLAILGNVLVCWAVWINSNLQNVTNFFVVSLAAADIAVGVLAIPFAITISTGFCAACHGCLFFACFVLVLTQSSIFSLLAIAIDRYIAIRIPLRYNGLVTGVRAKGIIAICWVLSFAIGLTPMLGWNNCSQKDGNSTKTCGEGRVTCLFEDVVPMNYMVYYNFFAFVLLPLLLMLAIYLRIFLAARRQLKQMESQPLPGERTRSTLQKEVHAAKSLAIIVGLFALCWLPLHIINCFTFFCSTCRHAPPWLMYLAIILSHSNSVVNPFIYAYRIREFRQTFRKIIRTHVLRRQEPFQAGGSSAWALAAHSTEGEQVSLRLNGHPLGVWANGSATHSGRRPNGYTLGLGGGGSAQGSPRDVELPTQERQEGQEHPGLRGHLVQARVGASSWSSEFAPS

Compound	Ratio Ki (Rattus norvegicus [2])	Ki (Adenosine receptor A2a [3]) [nM]	Ki (Adenosine receptor A1 [4]) [nM]	further results
CCCn1c(=O)c2[nH]c(C3CCCC3)nc2n(CCC)c1=O	–	–	–	inhibition (Rattus norvegicus [1]): Active
CCn1c(=O)c2c(nc(COc3ccccc3)n2C)n(CC)c1=O	2	1910	874	–
CCn1c(=O)c2c(nc(CCCc3ccccc3)n2C)n(CC)c1=O	3	3930	1240	–
CCn1c(COc2ccccc2)nc2c1c(=O)n(C)c(=O)n2C	2	2250	1100	–
Cn1c(=O)c2c(nc(COc3ccccc3)n2C)n(C)c1=O	0.77	2370	3090	–
Cn1c(=O)c2c(nc(CCc3ccccc3)n2C)n(C)c1=O	0.86	4950	5740	–
CCn1c(CCc2ccccc2)nc2c1c(=O)n(C)c(=O)n2C	3	3110	1090	–
CCn1c(=O)c2c(nc(CCCc3ccccc3)n2CC)n(CC)c1=O	17	2710	164	Ki (Adenosine receptor A1 [5]): 164 nM; inhibition (Rattus norvegicus [6]): Active; Ki (Adenosine receptor A1 [7]): 209 nM; Ki (Adenosine receptor A1 [8]): 258 nM; Ki (Adenosine receptor A1 [9]): 139 nM
CCn1c(=O)c2c(nc(COc3ccccc3)n2CC)n(CC)c1=O	6	2640	416	Ki (Adenosine receptor A1 [5]): 416 nM; Ki (Adenosine receptor A1 [7]): 397 nM; Ki (Adenosine receptor A1 [8]): 368 nM; Ki (Adenosine receptor A1 [9]): 356 nM
OC[C@H]1O[C@@H](n2cnc3c(NC4CCCC4)ncnc32)[C@H](O)[C@@H]1O [N6-CYCLOPENTYLADENOSINE]	–	331	–	–
CCn1c(CCCc2ccccc2)nc2c1c(=O)n(C)c(=O)n2C	19	4930	259	–
Cn1c(=O)c2c(nc(-c3ccccc3)n2C)n(C)c1=O	–	–	–	Ki (Adenosine receptor A2a [10]): 27000 nM
Cn1c(=O)c2c(nc(CCCc3ccccc3)n2C)n(C)c1=O	4	6800	1550	–
CCn1c(=O)c2c(nc(CCc3ccccc3)n2C)n(CC)c1=O	3	2360	816	–
CCn1c(=O)c2c(nc(CCc3ccccc3)n2CC)n(CC)c1=O	8	4970	636	Ki (Adenosine receptor A1 [5]): 636 nM; Ki (Adenosine receptor A1 [7]): 763 nM; Ki (Adenosine receptor A1 [8]): 681 nM; Ki (Adenosine receptor A1 [9]): 543 nM
